Assay results: patent publication US7547803B2, “Process for producing a high purity aromatic polycarboxylic acid” (Mitsubishi Gas Chemical Company, Inc., priority 2003, dated 2009)

Assay: solubility in water at 280° C.
Type: physicochemical

O=C(O)c1ccc2cc(C(=O)O)ccc2c1 [2,6-naphthalenedicarboxylic acid]
solubility of 2,6-naphthalenedicarboxylic acid in water: about 6 g in 100 g of water
